Results taken from the supplement of paper PMC10627819.

Key:
Assay in all cases: fitness (endpoint OD595 vs no drug) (fraction); higher = more growth
B. subtilis 168 = tested on: B. subtilis 168
Summary of the method: (§1)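 Bacterial fitness was scored as optical density at the stationary-phase transition relative to the robust mean of no-drug control wells. Scores are capped at 1. The growth data were OD595 readings every 30 min for 14 h at 37 °C, background-subtracted against the first reading, from 384-well plates inoculated at OD595 0.01 in TSB, LB Lennox or CY.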

S. aureus DSM 20231 = tested on: S. aureus DSM 20231
Summary of the method: as §1

S. pneumoniae D39V = tested on: S. pneumoniae D39V
Summary of the method: as §1
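Also: OD595 on entry to stationary phase over no-drug wells; at most 1.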

CN(C)[C@@H]1C(O)=C(C(N)=O)C(=O)[C@@]2(O)C(O)=C3C(=O)c4c(O)ccc(Cl)c4[C@@](C)(O)[C@H]3C[C@@H]12 [Chlortetracycline] + CN(N=O)C(=O)N[C@@H](C=O)[C@@H](O)[C@H](O)[C@H](O)CO [Streptozotocin]
fitness
Settings	partner 0.15 µg/mL	partner 0.3 µg/mL	partner 0.6 µg/mL	partner 1.2 µg/mL	partner 2.4 µg/mL	partner 4.8 µg/mL
B. subtilis 168, first compound 0.0475 µg/mL	0.901	0.934	0.956	–	–	–
B. subtilis 168, first compound 0.095 µg/mL	0.786	0.762	0.784	–	–	–
B. subtilis 168, first compound 0.19 µg/mL	0.533	0.547	0.556	–	–	–
S. aureus DSM 20231, first compound 0.012 µg/mL	0.503	0.532	0.507	–	–	–
S. aureus DSM 20231, first compound 0.024 µg/mL	0.227	0.232	0.189	–	–	–
S. aureus DSM 20231, first compound 0.048 µg/mL	0.0717	0.13	0.059	–	–	–
S. pneumoniae D39V, first compound 0.375 µg/mL	–	–	–	0.0355	0.0337	0.0486
S. pneumoniae D39V, first compound 0.75 µg/mL	–	–	–	0.0646	0.0497	0.0485
S. pneumoniae D39V, first compound 1.5 µg/mL	–	–	–	0.0765	0.0322	0.0617

fitness, one replicate
Settings	partner 0.15 µg/mL	partner 0.3 µg/mL	partner 0.6 µg/mL	partner 1.2 µg/mL	partner 2.4 µg/mL	partner 4.8 µg/mL
S. aureus DSM 20231, first compound 0.006 µg/mL	0.699	0.621	0.622	–	–	–
S. pneumoniae D39V, first compound 0.012 µg/mL	–	–	–	0.889	0.893	0.796
S. pneumoniae D39V, first compound 0.024 µg/mL	–	–	–	0.858	0.798	0.659
S. pneumoniae D39V, first compound 0.048 µg/mL	–	–	–	0.737	0.8	0.577

CN(C)[C@@H]1C(O)=C(C(N)=O)C(=O)[C@@]2(O)C(O)=C3C(=O)c4c(O)ccc(Cl)c4[C@@](C)(O)[C@H]3C[C@@H]12 [Chlortetracycline] + COc1cccc2c1C(=O)c1c(O)c3c(c(O)c1C2=O)C[C@@](O)(C(=O)CO)C[C@@H]3O[C@H]1C[C@H](N)[C@H](O)[C@H](C)O1 [Doxorubicin]
Settings	fitness
B. subtilis 168, first compound 0.0475 µg/mL, partner 0.625 µg/mL	0.895
B. subtilis 168, first compound 0.0475 µg/mL, partner 1.25 µg/mL	0.845
B. subtilis 168, first compound 0.0475 µg/mL, partner 2.5 µg/mL	0.717
B. subtilis 168, first compound 0.095 µg/mL, partner 0.625 µg/mL	0.789
B. subtilis 168, first compound 0.095 µg/mL, partner 1.25 µg/mL	0.775
B. subtilis 168, first compound 0.095 µg/mL, partner 2.5 µg/mL	0.56
B. subtilis 168, first compound 0.19 µg/mL, partner 0.625 µg/mL	0.44
B. subtilis 168, first compound 0.19 µg/mL, partner 1.25 µg/mL	0.404
B. subtilis 168, first compound 0.19 µg/mL, partner 2.5 µg/mL	0.256
S. aureus DSM 20231, first compound 0.012 µg/mL, partner 0.625 µg/mL	0.632
S. aureus DSM 20231, first compound 0.012 µg/mL, partner 1.25 µg/mL	0.671
S. aureus DSM 20231, first compound 0.012 µg/mL, partner 2.5 µg/mL	0.54
S. aureus DSM 20231, first compound 0.024 µg/mL, partner 0.625 µg/mL	0.346
S. aureus DSM 20231, first compound 0.024 µg/mL, partner 1.25 µg/mL	0.358
S. aureus DSM 20231, first compound 0.048 µg/mL, partner 0.625 µg/mL	0.135
S. aureus DSM 20231, first compound 0.048 µg/mL, partner 1.25 µg/mL	0.1
S. aureus DSM 20231, first compound 0.048 µg/mL, partner 2.5 µg/mL	0.0901
S. pneumoniae D39V, first compound 0.012 µg/mL, partner 0.25 µg/mL	0.829
S. pneumoniae D39V, first compound 0.012 µg/mL, partner 0.5 µg/mL	0.797
S. pneumoniae D39V, first compound 0.012 µg/mL, partner 1 µg/mL	0.714
S. pneumoniae D39V, first compound 0.024 µg/mL, partner 0.25 µg/mL	0.512
S. pneumoniae D39V, first compound 0.024 µg/mL, partner 0.5 µg/mL	0.458
S. pneumoniae D39V, first compound 0.024 µg/mL, partner 1 µg/mL	0.451
S. pneumoniae D39V, first compound 0.048 µg/mL, partner 0.25 µg/mL	0.175
S. pneumoniae D39V, first compound 0.048 µg/mL, partner 0.5 µg/mL	0.221
S. pneumoniae D39V, first compound 0.048 µg/mL, partner 1 µg/mL	0.179
S. pneumoniae D39V, first compound 0.375 µg/mL, partner 0.25 µg/mL	0.0266
S. pneumoniae D39V, first compound 0.375 µg/mL, partner 0.5 µg/mL	0.016
S. pneumoniae D39V, first compound 0.375 µg/mL, partner 1 µg/mL	0.0403
S. pneumoniae D39V, first compound 0.75 µg/mL, partner 0.25 µg/mL	0.031
S. pneumoniae D39V, first compound 0.75 µg/mL, partner 0.5 µg/mL	0.0286
S. pneumoniae D39V, first compound 0.75 µg/mL, partner 1 µg/mL	0.0402
S. pneumoniae D39V, first compound 1.5 µg/mL, partner 0.25 µg/mL	0.0296
S. pneumoniae D39V, first compound 1.5 µg/mL, partner 0.5 µg/mL	0.0259
S. pneumoniae D39V, first compound 1.5 µg/mL, partner 1 µg/mL	0.052

S. aureus DSM 20231, first compound 0.006 µg/mL, one replicate
Settings	fitness
partner 0.625 µg/mL	0.719
partner 1.25 µg/mL	0.685
partner 2.5 µg/mL	0.64
